Measurements: US6362321B1, “Taxol resistance associated gene” (The General Hospital Corporation, priority 1998, dated 2002)

Key:
[1] = system: SKOV-3TR cells; experiment: MTT cytotoxicity assay, taxol-resistant SKOV-3TR versus parental SKOV-3; type: cell-based, Human
Description: (§1) All drugs were obtained from commercial sources. In vitro cytotoxicity was measured using a tetrazolium-based semi-automated calorimetric assay (i.e., MTT assay), as described (Carmichael et al., 1987, Cancer Res. 47:936-942). Briefly, 2×10^3 cells per well were cultured for 6 days with taxol or with taxol plus 30 μM verapamil. 20 μl of 5 mg/ml MTT solution was added to each well and incubated for 4 hours. A590 nm was measured after MTT formazan was solubilized with HCl-isopropanol solution. The absorbance values were normalized by assigning the value of the parent line in media to 1.0 and the value of the no-cell blank to 0. Experiments were performed in duplicate.
A taxol-resistant SKOV-3 subline, SKOV-3TR, was established by exposing SKOV-3 cells to taxol at stepwise increases in concentration (from 0.00001 μM to 0.3 μM taxol). […] The growth rate of […], was similar to that of parental SKOV-3. Cell lines were analyzed for their degree of taxol resistance by MTT cytotoxicity assays. […] This drug resistance profile is consistent with a MDR1 phenotype.

[2] = system: SKOV-3 TRAG-3 transfectants; experiment: MTT assay of taxol sensitivity in TRAG-3 stable transfectants of SKOV-3; type: cell-based, Human; details: SKOV-3 lipotransfected with pCI/TRAG-3, G418 selected; initial results
Description: as §1
pCI-neo Mammalian Expression Vector (Promega) was used to overexpress TRAG-3 cDNA in SKOV-3 cells. Constructs carrying TRAG-3 were introduced into SKOV-3 cells by using the PERFECT™ Transfection Kit (Invitrogen) according to the manufacturer's protocol. The individual G418 (300 μg/ml) resistant clones were isolated and examined by Northern analysis for stable expression of TRAG-3. MTT assays were performed on the transfectants to evaluate the effect of TRAG-3 on taxol sensitivity.
To elucidate the contribution of TRAG-3 gene product(s) to taxol resistance, taxol-sensitive SKOV-3 cells were lipotransfected with the pCI/TRAG-3 expression vector. After G418 selection, several TRAG-3 stable transfectant subclones were obtained. […]

## CC[C@]1(O)C[C@H]2CN(CCc3c([nH]c4ccccc34)[C@@](C(=O)OC)(c3cc4c(cc3OC)N(C=O)[C@H]3[C@@](O)(C(=O)OC)[C@H](OC(C)=O)[C@]5(CC)C=CCN6CC[C@]43[C@@H]65)C2)C1 [vincristine]
[1]; SKOV-3TR selected with taxol up to 0.3 μM
  resistance of SKOV-3TR to other drugs (cross-resistance): cross-resistance

## COc1ccc(CCN(C)CCCC(C#N)(c2ccc(OC)c(OC)c2)C(C)C)cc1OC (stereo not shown) [verapamil]
[1]; taxol plus 30 μM verapamil, MTT assay, FIG. 1
  effect of verapamil on SKOV-3TR's resistance to taxol: reversed

## CC(=O)O[C@H]1C(=O)[C@@]2(C)[C@H]([C@H](OC(=O)c3ccccc3)[C@]3(O)C[C@H](OC(=O)[C@H](O)[C@@H](NC(=O)c4ccccc4)c4ccccc4)C(C)=C1C3(C)C)[C@]1(OC(C)=O)CO[C@@H]1C[C@@H]2O [taxol]
[1]; MTT cytotoxicity, SKOV-3TR vs parental SKOV-3, 6 days culture
  degree of taxol resistance of SKOV-3TR relative to SKOV-3: approximately 100 fold
[2]
  taxol resistance of TRAG-3 transfectants compared to the parent line: no significant increase in taxol resistance
